Assays:
Format in all cases: in vivo
[1] = test system: Scirpus juncoides; assay: Test Example 1: herbicidal activity, application before weed generation in submerged conditions (symbol B); details: application herbicide amount 320 g/ha
In short: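 Pre-emergence, paddy conditions: emulsifiable formulation diluted in water, dosed onto floodwater (4 cm depth) on sowing day. Alluvial soil; weeds sown mixed; rice transplanted at 2.5-leaf stage. Greenhouse 25–30 °C, 3 wk. Score 0–5 (5 = ≥90% kill, 0 = ≤5%).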

[2] = test system: Setaria viridis; assay: Test Example 4: herbicidal effect by soil treatment (symbol G); details: application herbicide amount 320 g/ha
In short: (§1)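 Seeds were sown in sterilized diluvial soil, covered with about 1.5 cm of soil, and the soil surface was sprayed with a water-diluted emulsion of the compound at a predetermined rate. Plants grew in a greenhouse at 25° C. to 30° C.; effects were scored visually 3 weeks after application.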

[3] = test system: Avena fatua; assay: Test Example 4: herbicidal effect by soil treatment (symbol I); details: application herbicide amount 320 g/ha
In short: as §1

[4] = test system: Alopecurus myosuroides; assay: Test Example 4: herbicidal effect by soil treatment (symbol J); details: application herbicide amount 320 g/ha
In short: as §1

[5] = test system: Lolium multiflorum Lam.; assay: Test Example 4: herbicidal effect by soil treatment (symbol K); details: application herbicide amount 320 g/ha
In short: as §1

[6] = test system: Abutilon theophrasti; assay: Test Example 4: herbicidal effect by soil treatment (symbol M); details: application herbicide amount 320 g/ha
In short: as §1

[7] = test system: Amaranthus retroflexus; assay: Test Example 4: herbicidal effect by soil treatment (symbol N); details: application herbicide amount 320 g/ha
In short: as §1

[8] = test system: Stellaria media; assay: Test Example 4: herbicidal effect by soil treatment (symbol P); details: application herbicide amount 320 g/ha
In short: as §1

[9] = test system: Galium spurium; assay: Test Example 4: herbicidal effect by soil treatment (symbol Q); details: application herbicide amount 320 g/ha
In short: as §1

[10] = test system: corn; assay: Test Example 4: effect on crop by soil treatment (symbol c); details: application herbicide amount 320 g/ha
In short: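 Sterilized diluvial soil, spot sowing, ~1.5 cm soil cover; greenhouse 25–30° C.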

[11] = test system: soybean; assay: Test Example 4: effect on crop by soil treatment (symbol d); details: application herbicide amount 320 g/ha
In short: (§2)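 Crop seed is sown in spots together with several weed species in a box of sterilized diluvial soil. It is covered by about 1.5 cm of soil and kept in a greenhouse held between 25° C. and 30° C.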

[12] = test system: rice; assay: Test Example 4: effect on crop by soil treatment (symbol b); details: application herbicide amount 320 g/ha
In short: as §2

[13] = test system: wheat; assay: Test Example 4: effect on crop by soil treatment (symbol e); details: application herbicide amount 320 g/ha
In short: as §2

[14] = test system: Digitaria ciliaris; assay: Test Example 5: herbicidal effect by foliage application, plastic box (symbol F); details: 320 g/ha, 3 weeks after application
In short: (§3)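 Post-emergence spray; diluvial soil (sterilized), ~1.5 cm seed cover; greenhouse 25–30° C; 14-day-old plants; water-diluted emulsion at predetermined dose; visual score at 3 wk post-treatment.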

[15] = test system: Setaria viridis; assay: Test Example 5: herbicidal effect by foliage application, plastic box (symbol G); details: 320 g/ha, 3 weeks after application
In short: as §3

[16] = test system: Echinochloa crus-galli var. crus-galli; assay: Test Example 5: herbicidal effect by foliage application, plastic box (symbol H); details: 320 g/ha, 3 weeks after application
In short: as §3

[17] = test system: Alopecurus myosuroides; assay: Test Example 5: herbicidal effect by foliage application, plastic box (symbol J); details: 320 g/ha, 3 weeks after application
In short: as §3

[18] = test system: Amaranthus retroflexus; assay: Test Example 5: herbicidal effect by foliage application, plastic box (symbol N); details: 320 g/ha, 3 weeks after application
In short: as §3

[19] = test system: Galium spurium; assay: Test Example 5: herbicidal effect by foliage application, plastic box (symbol Q); details: 320 g/ha, 3 weeks after application
In short: as §3

[20] = test system: soybean; assay: Test Example 5: effect on crop by foliage application, plastic box (symbol d); details: 320 g/ha, 3 weeks after application
In short: (§4)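 Box culture: sterile diluvial soil, seeds spot-sown, ~1.5 cm cover, raised under glass at 25–30° C.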

[21] = test system: rice plant; assay: Test Example 5: effect on crop by foliage application, plastic box (symbol b); details: 320 g/ha, 3 weeks after application
In short: as §4

[22] = test system: wheat; assay: Test Example 5: effect on crop by foliage application, plastic box (symbol e); details: 320 g/ha, 3 weeks after application
In short: as §4

SMILES | Herbicidal effect grade, B: Scirpus juncoides [1] | Herbicidal effect grade, G: Setaria viridis [2] | Herbicidal effect grade, I: Avena fatua [3] | Herbicidal effect grade, J: Alopecurus myosuroides [4] | Herbicidal effect grade, K: Lolium multiflorum Lam. [5] | Herbicidal effect grade, M: Abutilon theophrasti [6] | Herbicidal effect grade, N: Amaranthus retroflexus [7] | Herbicidal effect grade, P: Stellaria media [8] | Herbicidal effect grade, Q: Galium spurium [9] | Effect on crop grade, c: corn [10] | Effect on crop grade, d: soybean [11] | Effect on crop grade, b: directly sowed rice plant [12] | Effect on crop grade, e: wheat [13] | F: Digitaria ciliaris, herbicidal effect (criteria of Test Example 1) [14] | G: Setaria viridis, herbicidal effect (criteria of Test Example 1) [15] | H: Echinochloa crus-galli var. crus-galli, herbicidal effect (criteria of Test Example 1) [16] | J: Alopecurus myosuroides, herbicidal effect (criteria of Test Example 1) [17] | N: Amaranthus retroflexus, herbicidal effect (criteria of Test Example 1) [18] | Q: Galium spurium, herbicidal effect (criteria of Test Example 1) [19] | d: soybean, effect on crop (criteria of Test Example 1) [20] | other results
CON=C(C)CC1CC(OC(=O)N2CCOCC2)=C(c2c(C)cc(C)cc2OC)C1=O (stereo not drawn) [6-094] | 5 (Herbicidal ratio of 90% or more (almost completely withered)) | 5 (Herbicidal ratio of 90% or more (almost completely withered)) | 5 (Herbicidal ratio of 90% or more (almost completely withered)) | 5 (Herbicidal ratio of 90% or more (almost completely withered)) | 5 (Herbicidal ratio of 90% or more (almost completely withered)) | 4 (Herbicidal ratio of 70% or higher and lower than 90%) | 0 (Herbicidal ratio of 5% or lower (almost no effect)) | 0 (Herbicidal ratio of 5% or lower (almost no effect)) | 0 (Herbicidal ratio of 5% or lower (almost no effect)) | 1 (Herbicidal ratio of 5% or higher and lower than 20%) | 0 (Herbicidal ratio of 5% or lower (almost no effect)) | 5 (Herbicidal ratio of 90% or more (almost completely withered)) | 0 (Herbicidal ratio of 5% or lower (almost no effect)) | 5 (Herbicidal ratio of 90% or more (almost completely withered)) | 5 (Herbicidal ratio of 90% or more (almost completely withered)) | 5 (Herbicidal ratio of 90% or more (almost completely withered)) | 5 (Herbicidal ratio of 90% or more (almost completely withered)) | 0 (Herbicidal ratio of 5% or lower (almost no effect)) | 5 (Herbicidal ratio of 90% or more (almost completely withered)) | 4 (Herbicidal ratio of 70% or higher and lower than 90%) | b: directly sowed rice plant, effect on crop (criteria of Test Example 1) [21]: 5 (Herbicidal ratio of 90% or more (almost completely withered)); e: wheat, effect on crop (criteria of Test Example 1) [22]: 4 (Herbicidal ratio of 70% or higher and lower than 90%)
CON=C(C)CC1CC(OS(=O)(=O)N(C)C)=C(c2c(C)cc(C)cc2OC)C1=O (stereo not drawn) [6-095] | 4 (Herbicidal ratio of 70% or higher and lower than 90%) | 5 (Herbicidal ratio of 90% or more (almost completely withered)) | 3 (Herbicidal ratio of 40% or higher and lower than 70%) | 5 (Herbicidal ratio of 90% or more (almost completely withered)) | 5 (Herbicidal ratio of 90% or more (almost completely withered)) | 5 (Herbicidal ratio of 90% or more (almost completely withered)) | 1 (Herbicidal ratio of 5% or higher and lower than 20%) | 0 (Herbicidal ratio of 5% or lower (almost no effect)) | 0 (Herbicidal ratio of 5% or lower (almost no effect)) | 2 (Herbicidal ratio of 20% or higher and lower than 40%) | 0 (Herbicidal ratio of 5% or lower (almost no effect)) | 5 (Herbicidal ratio of 90% or more (almost completely withered)) | 2 (Herbicidal ratio of 20% or higher and lower than 40%) | 5 (Herbicidal ratio of 90% or more (almost completely withered)) | 5 (Herbicidal ratio of 90% or more (almost completely withered)) | 5 (Herbicidal ratio of 90% or more (almost completely withered)) | 5 (Herbicidal ratio of 90% or more (almost completely withered)) | 0 (Herbicidal ratio of 5% or lower (almost no effect)) | 0 (Herbicidal ratio of 5% or lower (almost no effect)) | 3 (Herbicidal ratio of 40% or higher and lower than 70%) | b: directly sowed rice plant, effect on crop (criteria of Test Example 1) [21]: 5 (Herbicidal ratio of 90% or more (almost completely withered)); e: wheat, effect on crop (criteria of Test Example 1) [22]: 4 (Herbicidal ratio of 70% or higher and lower than 90%)
CON=C(C)CC1CC(O)=C(c2c(C)cc(-c3ccccc3)cc2OC)C1=O (stereo not drawn) [6-099] | 5 (Herbicidal ratio of 90% or more (almost completely withered)) | 5 (Herbicidal ratio of 90% or more (almost completely withered)) | 5 (Herbicidal ratio of 90% or more (almost completely withered)) | 5 (Herbicidal ratio of 90% or more (almost completely withered)) | 5 (Herbicidal ratio of 90% or more (almost completely withered)) | 3 (Herbicidal ratio of 40% or higher and lower than 70%) | 5 (Herbicidal ratio of 90% or more (almost completely withered)) | 4 (Herbicidal ratio of 70% or higher and lower than 90%) | 3 (Herbicidal ratio of 40% or higher and lower than 70%) | 5 (Herbicidal ratio of 90% or more (almost completely withered)) | 0 (Herbicidal ratio of 5% or lower (almost no effect)) | 5 (Herbicidal ratio of 90% or more (almost completely withered)) | 5 (Herbicidal ratio of 90% or more (almost completely withered)) | 5 (Herbicidal ratio of 90% or more (almost completely withered)) | 5 (Herbicidal ratio of 90% or more (almost completely withered)) | 5 (Herbicidal ratio of 90% or more (almost completely withered)) | 5 (Herbicidal ratio of 90% or more (almost completely withered)) | 4 (Herbicidal ratio of 70% or higher and lower than 90%) | 5 (Herbicidal ratio of 90% or more (almost completely withered)) | 4 (Herbicidal ratio of 70% or higher and lower than 90%) | b: directly sowed rice plant, effect on crop (criteria of Test Example 1) [21]: 5 (Herbicidal ratio of 90% or more (almost completely withered)); e: wheat, effect on crop (criteria of Test Example 1) [22]: 5 (Herbicidal ratio of 90% or more (almost completely withered))

Reference: patent US11000033B2, “Ketone or oxime compound, and herbicide” (NISSAN CHEMICAL CORPORATION, priority 2014, dated 2021)
